Entries after “also recorded” stand apart in the source; their conditions may differ. Read-outs that look alike come from different tables or passages of the source.
Experiments:
[1] = tested on: anti-NGF transgenic mice (AD11); test: Immunohistochemistry and neurostereology in anti-NGF transgenic mice (AD11); type: in vivo, mouse; details: for extracellular deposition of APP: 6 month-old AD11 mice (FIG. 19); for cholinergic deficit in the basal forebrain (number of cholinergic neurons): AD11 mice from 6 months of age for 15 days (FIG. 16); for number of cells accumulating β-amyloid protein in the hippocampus: treatment starting at 6 months of age (FIG. 20)
[2] = molecular target: AChE (from human erythrocytes, amphiphilic form, EC 3.1.1.7) (Homo sapiens, UniProt P22303); test: biochemical; details: for Selectivity IC50(BuChE)/IC50 (AChE): ratio of the Table I IC50 values
Sequence of AChE (from human erythrocytes, amphiphilic form, EC 3.1.1.7) (P22303 32-617 isoform P22303-2 limits assumed): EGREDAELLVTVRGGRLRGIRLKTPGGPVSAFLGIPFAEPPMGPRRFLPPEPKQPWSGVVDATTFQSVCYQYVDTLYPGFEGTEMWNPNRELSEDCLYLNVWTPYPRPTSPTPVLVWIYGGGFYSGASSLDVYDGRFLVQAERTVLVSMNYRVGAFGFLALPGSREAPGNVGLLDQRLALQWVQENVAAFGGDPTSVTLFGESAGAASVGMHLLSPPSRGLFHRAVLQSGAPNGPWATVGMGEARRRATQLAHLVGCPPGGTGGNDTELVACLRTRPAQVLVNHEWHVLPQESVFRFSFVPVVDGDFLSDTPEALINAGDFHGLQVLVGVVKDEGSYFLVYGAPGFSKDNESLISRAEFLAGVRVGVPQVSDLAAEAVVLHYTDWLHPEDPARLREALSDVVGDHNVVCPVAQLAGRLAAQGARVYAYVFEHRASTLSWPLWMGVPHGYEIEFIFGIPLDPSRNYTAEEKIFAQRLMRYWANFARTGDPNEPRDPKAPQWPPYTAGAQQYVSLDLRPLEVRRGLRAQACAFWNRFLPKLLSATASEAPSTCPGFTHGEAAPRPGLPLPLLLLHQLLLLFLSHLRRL

[3] = molecular target: BuChE (from human serum, EC 3.1.1.8) (Homo sapiens, UniProt P06276); test: biochemical
Sequence of BuChE (from human serum, EC 3.1.1.8) (P06276 29-602): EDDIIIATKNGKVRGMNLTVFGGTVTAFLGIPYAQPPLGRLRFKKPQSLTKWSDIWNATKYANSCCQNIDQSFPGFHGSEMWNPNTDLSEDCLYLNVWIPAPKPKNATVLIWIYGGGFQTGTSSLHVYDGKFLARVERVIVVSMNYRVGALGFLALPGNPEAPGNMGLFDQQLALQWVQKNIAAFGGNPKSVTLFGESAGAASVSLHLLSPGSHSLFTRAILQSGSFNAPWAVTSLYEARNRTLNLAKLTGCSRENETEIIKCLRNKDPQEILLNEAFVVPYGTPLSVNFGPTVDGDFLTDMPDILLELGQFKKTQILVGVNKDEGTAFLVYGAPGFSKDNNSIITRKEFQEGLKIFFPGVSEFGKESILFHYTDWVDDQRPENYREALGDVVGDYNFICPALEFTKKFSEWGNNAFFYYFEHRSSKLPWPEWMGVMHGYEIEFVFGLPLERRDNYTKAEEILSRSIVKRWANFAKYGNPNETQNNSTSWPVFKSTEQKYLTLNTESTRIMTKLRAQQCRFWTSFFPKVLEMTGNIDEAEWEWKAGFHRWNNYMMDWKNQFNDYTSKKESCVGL

[4] = molecular target: AChE, from human erythrocytes EC 3.1.1.7 (Homo sapiens, UniProt P22303); type: biochemical
Sequence of AChE, from human erythrocytes EC 3.1.1.7 (P22303 32-617 isoform P22303-2 limits assumed): as the sequence (P22303 32-617 isoform P22303-2 limits assumed) above

[5] = molecular target: recombining human AChE (HuAChE, EC 3.1.1.7) (Homo sapiens, UniProt P22303); type: biochemical; details: mean of two independent measurements in triplicate
Sequence of recombining human AChE (HuAChE, EC 3.1.1.7) (P22303 32-614): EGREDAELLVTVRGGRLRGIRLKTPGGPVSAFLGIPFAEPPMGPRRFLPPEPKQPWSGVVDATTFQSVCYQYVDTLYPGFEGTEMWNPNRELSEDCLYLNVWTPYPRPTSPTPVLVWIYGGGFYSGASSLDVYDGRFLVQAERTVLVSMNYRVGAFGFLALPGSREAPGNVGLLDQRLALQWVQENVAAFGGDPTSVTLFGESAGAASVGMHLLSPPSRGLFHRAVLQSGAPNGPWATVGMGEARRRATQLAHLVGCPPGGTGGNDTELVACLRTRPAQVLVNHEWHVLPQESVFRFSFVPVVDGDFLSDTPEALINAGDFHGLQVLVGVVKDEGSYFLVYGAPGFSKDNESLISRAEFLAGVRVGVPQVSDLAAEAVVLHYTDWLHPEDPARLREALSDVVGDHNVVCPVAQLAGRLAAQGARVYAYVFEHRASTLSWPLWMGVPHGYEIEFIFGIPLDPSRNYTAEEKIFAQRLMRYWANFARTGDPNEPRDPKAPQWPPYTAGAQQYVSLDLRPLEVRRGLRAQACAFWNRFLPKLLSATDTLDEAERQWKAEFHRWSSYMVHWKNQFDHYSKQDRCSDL

[6] = molecular target: aggregation of Aβ (1-40) induced by AChE (recombining human, EC 3.1.1.7) (Homo sapiens, UniProt P22303); test: biochemical; type: biochemical
Sequence of aggregation of Aβ (1-40) induced by AChE (recombining human, EC 3.1.1.7) (P22303 32-614): as above

AD11 mice = test: Object recognition test in AD11 mice; type: in vivo, mouse
[7] = tested on: non transgenic mice treated with scopolamine; test: Object recognition test, amnesia induced by scopolamine in non transgenic mice; type: in vivo, mouse; details: per os 15 mg/kg 20 min before scopolamine 0.5 mg/kg s.c. (FIG. 14)
[8] = Total antioxidant status (Randox kit, modified), capture of oxygen radicals, ABTS colorimetric method; type: biochemical; details: for % inhibition (antioxidant activity): absorbance 600 nm, 3 min, pH 7.4, 37° C.
[9] = AD11 mice, 15 days starting at 6 months of age (FIG. 18)
[10] = AChE from human erythrocytes, Ellman's method, Table I, read-out: IC50(AChE)
[11] = BuChE from human serum, Ellman's method, Table I, read-out: IC50 (BuChE)
[12] = BuChE from human serum, Example 50 table, mean of two independent measurements in triplicate, read-out: IC50 (BuChE)
[13] = AD11 mice aged 15 months, per os 7 mg/kg/day for 1 month, versus placebo (FIG. 11)
[14] = AD11 mice, daily from 1.5 months until 2 months of age, per os or intraperitoneal, comparison of AChE inhibitors (FIG. 15)

What does the source list for COc1ccccc1CN(C)CCCCCC(=O)N(C)CCCCCCCCN(C)C(=O)CCCCCN(C)Cc1ccccc1OC [Caproctamine, reference compound]?
extracellular deposition of APP [1]: ineffective; cholinergic deficit in the basal forebrain (number of cholinergic neurons) [1]: had no effect on the number of cholinergic neurons; number of neurons labelled with antibodies against phospho-tau (entorhinal cortex) [1, 9]: ineffective; number of cells accumulating β-amyloid protein in the hippocampus ([1]; AD11 mice): ineffective

Which results are given for CCN(CCCCCCNC1=CC(=O)C(NCCCCCCN(CC)Cc2ccccc2OC)=CC1=O)Cc1ccccc1OC [Compound XVI, 2,5-Bis-{6-[ethyl-(2-methoxy-benzyl)-amino]-hexylamino}-[1,4]benzoquinone]?
IC50 [2, 10]: 2.39 ± 0.14 nM; Selectivity IC50(BuChE)/IC50 (AChE) [2]: 602; IC50 [3, 11]: 1440 ± 100 nM; IC50 [3, 12]: 1440 ± 100 nM; IC50 ([3]; approximate, corresponds to the Table I IC50, read-out: pIC50(BChE) (converted)): ~1450 nM; type of inhibition ([4]; Lineweaver-Burk analysis (FIG. 1)): competitive inhibitor of a mixed type; Ki ([4]; acetylthiocholine 111-550 μM, Lineweaver-Burk, intercept of the gradient plot): 2.6 nM; IC50 [5]: 1.55 ± 0.11 nM; IC50 ([6]; read-out: concentration able to reduce the signal of fluorescence by 50% (IC50, AChE-induced Aβ aggregation), Aβ 230 μM, AChE 2.3 μM, thioflavine T fluorescence): 28300 ± 300 nM; extracellular deposition of APP [1]: reduced the extracellular deposition of APP; number of cholinergic neurons in the basal forebrain ([1]; AD11 mice aged 15 months, per os 7 mg/kg/day for 1 month (FIG. 9)): improvement in the number of cholinergic neurons; intracellular accumulation of hyperphosphorylated tau ([1]; AD11 mice aged 15 months, per os 7 mg/kg/day for 1 month, versus placebo (FIG. 10)): decreased; number of cells associated with plaques [1, 13]: lower than that in placebo-treated mice; number of β-amyloid plaques [1, 13]: decrease in the number of β-amyloid plaques; cholinergic deficit in the basal forebrain (number of cholinergic neurons) [1]: able to rescue the cholinergic deficit; APP deposition in the cerebral vessels ([1]; AD11 mice of 2 months, 7 mg/kg intraperitoneal daily for 15 days (FIG. 7)): able to reduce markedly the cerebrovascular deposition of APP; tau hyperphosphorylation in the cortex ([1]; AD11 mice of 2 months, 7 mg/kg intraperitoneal daily for 15 days (FIG. 8)): partly prevented; cholinergic neurons in the basal nucleus of Meynert ([1]; AD11 mice, 7 mg/kg intraperitoneal daily for 15 days from age 1.5 to 2 months (FIG. 6)): efficacious in preventing the loss of cholinergic neurons; ChAT positive cholinergic neurons in the basal forebrain ([1]; AD11 mice, 7 mg/kg intraperitoneal daily for 15 days from age 1.5 to 2 months (FIGS. 4, 5)): able to prevent the cholinergic deficit in the basal forebrain; number of neurons labelled with antibodies against phospho-tau (entorhinal cortex) ([1]; AD11 mice, 15 days starting at 1.5 months of age (FIG. 17)): reduced the number of neurons labelled with antibodies against phospho-tau; number of neurons labelled with antibodies against phospho-tau (entorhinal cortex) [1, 9]: reduced the number of neurons labelled with antibodies against phospho-tau; number of cholinergic neurons in the basal forebrain [1, 14]: prevented the decrease of the number of cholinergic neurons; number of cells accumulating β-amyloid protein in the hippocampus ([1]; AD11 mice): able to reduce the number of cells accumulating β-amyloid protein; behavioural deficit, object recognition test (discrimination index) (AD11 mice; AD11 mice at 6 months, 15 mg/kg/day per os for 15 days (FIGS. 12, 21), 15 mg/kg/day): improvement of the deficit; also recorded: marked amelioration of the behavioural deficit; behavioural deficit, object recognition test (discrimination index) (AD11 mice; AD11 mice at 12 months, 15 mg/kg/day per os for 15 days (FIG. 13)): improvement of the deficit; amnesia induced by scopolamine, object recognition test [7]: did not show any signs of amnesia; % inhibition (antioxidant activity) ([8]; concentration 170 μM, with human serum albumin 25 μM): 44.1 ± 3.7%; antioxidant power, times lower than Trolox ([8]; oxidated quinonic form tested): about 6 times

Which IC50 [3, 12] does the source give for CCN(CCCCCCCNC1=CC(=O)C(NCCCCCCCN(CC)Cc2ccccc2OC)=CC1=O)Cc1ccccc1OC [IL, 2,5-bis-{7-[ethyl-(2-methoxy-benzyl)-amino]-heptylamino}-[1,4]benzoquinone] here?
Its IC50 is 1250 ± 250 nM.

And the IC50 [5]?
Its IC50 is 7.79 ± 0.37 nM.

With COc1ccccc1CNCCCCCCNC1=CC(=O)C(NCCCCCCNCc2ccccc2OC)=CC1=O [LI, 2,5-bis-[6-(2-methoxy-benzylamino)-hexylamino]-[1,4]-benzoquinone] as the compound, how does the IC50 [3, 12] read?
The IC50 was 3230 ± 150 nM.

What about the IC50 [5] of the same compound?
Its IC50 is 123 ± 20 nM.

For COc1ccccc1CN(C)CCCCCCNC1=CC(=O)C(NCCCCCCN(C)Cc2ccccc2OC)=CC1=O [LIV, 2,5-bis-{6-[(2-methoxy-benzyl)-methylamino]-hexylamino}-[1,4]-benzoquinone], which IC50 [3, 12] is on record?
Its IC50 is 5110 ± 410 nM.

And the IC50 [5]?
Its IC50 is 77.8 ± 4.3 nM.

For CCN(CCCCCCNC1=C(C)C(=O)C(NCCCCCCN(CC)Cc2ccccc2OC)=C(C)C1=O)Cc1ccccc1OC [LV, 2,5-bis-{6-[ethyl-(2-methoxy-benzyl)-amino]-hexylamino}-3,6-dimethyl-[1,4]-benzoquinone], which IC50 [3, 12] is on record?
Its IC50 is 462 ± 2 nM.

And the IC50 [5]?
The IC50 was 9.5 ± 0.23 nM.

With Nc1c2c(nc3ccccc13)CCCC2 [Tacrine, reference compound] as the compound, how does the “number of cholinergic neurons in the basal forebrain” value [1, 14] read?
The value was “aggravated the cholinergic deficit”.

For Cc1c(C)c2c(c(C)c1O)CCC(C)(C(=O)O)O2 (centres unmarked) [Trolox, 6-hydroxy-2,5,7,8-tetramethylchroman-2-carboxylic acid, reference compound], which “% inhibition (antioxidant activity)” value ([8]; concentration 27 μM) is on record?
Its value is 57.6 ± 0.9%.

What does the source list for CCN(CCCNC1=CC(=O)C(NCCCN(CC)Cc2ccccc2OC)=CC1=O)Cc1ccccc1OC [XII, 2,5-Bis-{3-[ethyl-(2-methoxy-benzyl)-amino]-propylamino}-[1,4]benzoquinone]?
IC50 [2, 10]: 3.19 ± 0.15 nM; IC50 ([2]; approximate, corresponds to the Table I IC50, read-out: pIC50(AChE) (converted)): ~3.24 nM; Selectivity IC50(BuChE)/IC50 (AChE) [2]: 1407; IC50 [3, 11]: 4490 ± 340 nM; IC50 [5]: 2.25 ± 0.21 nM; inhibition at 100 µM ([6]; concentration of 100 μM): ~90%

What does the source list for CCN(CCCCCCNC1=CC(=O)C(NCCCCCCN(CC)Cc2ccco2)=CC1=O)Cc1ccco1 [XLI, 2,5-bis-[6-(ethyl-furan-2-ilmethyl-amino)-hexylamino]-[1,4]benzoquinone]?
IC50 [3, 12]: 3510 ± 180 nM; IC50 [5]: 144 ± 3 nM

For CCN(CCNC1=CC(=O)C(NCCN(CC)Cc2ccccc2OC)=CC1=O)Cc1ccccc1OC [XLV, 2,5-bis-{2-[ethyl-(2-methoxy-benzyl)-amino]-ethylamino}-[1,4]benzoquinone], which IC50 [3, 12] is on record?
Its IC50 is 16800 ± 1100 nM.

And the IC50 [5]?
Its IC50 is 61.5 ± 1.3 nM.

For CCN(CCCCCCNC1=CC(=O)C(NCCCCCCN(CC)Cc2ccccc2)=CC1=O)Cc1ccccc1 [XVII, 2,5-Bis-[6-(benzyl-ethyl-amino)-hexylamino]-[1,4]benzoquinone], which IC50 [3, 12] is on record?
Its IC50 is 645 ± 33 nM.

What about the IC50 [5] of the same compound?
The IC50 was 73.3 ± 3.2 nM.

Which IC50 [3, 12] does the source give for CCN(CCCCCCNC1=CC(=O)C(NCCCCCCN(CC)Cc2ccccc2Cl)=CC1=O)Cc1ccccc1Cl [XVIII, 2,5-Bis-{6-[ethyl-(2-chloro-benzyl)-amino]-hexylamino}-[1,4]benzoquinone] here?
The IC50 was 45100 ± 1000 nM.

What about the IC50 [5] of the same compound?
The IC50 was 593 ± 51 nM.

For CCN(CCCCCCNC1=CC(=O)C(NCCCCCCN(CC)Cc2ccccc2[N+](=O)[O-])=CC1=O)Cc1ccccc1[N+](=O)[O-] [XXIX, 2,5-bis-{6-[ethyl-(2-nitro-benzyl)-amino]-hexylamino}-[1,4]benzoquinone], which IC50 [3] is on record?
Its IC50 is 36500 ± 8800 nM.

What about the IC50 [5] of the same compound?
Its IC50 is 2310 ± 130 nM.

Which IC50 [3, 12] does the source give for CCN(CCCCCCNC1=CC(=O)C(NCCCCCCN(CC)Cc2cccc(OC)c2)=CC1=O)Cc1cccc(OC)c1 [XXXIII, 2,5-bis-{6-[ethyl-(3-methoxy-benzyl)-amino]-hexylamino}-[1,4]benzoquinone] here?
The IC50 was 2170 ± 70 nM.

What about the IC50 [5] of the same compound?
The IC50 was 13.8 ± 1.7 nM.

Which results are given for CCN(CCCCCCNC1=CC(=O)C(NCCCCCCN(CC)Cc2ccc(OC)cc2)=CC1=O)Cc1ccc(OC)cc1 [XXXVII, 2,5-bis-{6-[ethyl-(4-methoxy-benzyl)-amino]-hexylamino}-[1,4]benzoquinone]?
IC50 [3, 12]: 2420 ± 940 nM; IC50 [5]: 51.1 ± 1 nM

Source: US7589219B2, “2,5-bis-diamine-[1,4]benzoquinonic derivatives, useful for the treatment of alzheimer's disease, method for preparing them and intermediates of said method” (priority 2002, dated 2009)
